Experimental data reported in PubChem BioAssay AID330 (DTP/NCI, 2004).
“And” between values parts separate entries of the source, which are not always exact repeats. Equal values may be shown once. Inconclusive results and toxic doses are left out. How the source made its calls: active means survival T/C of 150% or more; inactive means T/C below 125% in these data.

Test system: P388 leukemia ip, CD2F1 mice, survival T/C
Assay: NCI In Vivo Anticancer Drug Screen. Data for tumor model P388 Leukemia (intraperitoneal) in CD2F1 (CDF1) mice
Settings: endpoint: median survival time, higher = longer survival
In short: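 Mice carrying the transplanted tumor received test compound or vehicle. Survival was recorded in each group, and the value is the treated-group measurement divided by that of the vehicle-treated control group.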

[1] = dose: 50.0 mg/kg/injection, schedule: Q01DX005 (ip), vehicle: Klucel (hydroxypropylcellulose) (HPC)
[2] = dose: 100.0 mg/kg/injection, schedule: Q01DX005 (ip), vehicle: Klucel (hydroxypropylcellulose) (HPC)
[3] = dose: 60.0 mg/kg/injection, schedule: Q01DX005 (ip), vehicle: saline with Tween-80
[4] = dose: 50.0 mg/kg/injection, schedule: Q01DX009 (ip), vehicle: saline with Tween-80
[5] = dose: 100.0 mg/kg/injection, schedule: Q01DX009 (ip), vehicle: saline with Tween-80
[6] = dose: 200.0 mg/kg/injection, schedule: Q01DX009 (ip), vehicle: saline with Tween-80
[7] = dose: 50.0 mg/kg/injection, schedule: Q01DX005 (ip), vehicle: saline with Tween-80
[8] = dose: 100.0 mg/kg/injection, schedule: Q01DX005 (ip), vehicle: saline with Tween-80

Measured: T/C

C[C@@H]1C[C@@H]([C@H](O)CC2CC(=O)NC(=O)C2)C(=O)[C@@H](C)C1
inactive: dose: 3.89 mg/kg/injection, schedule: Q01DX009 (ip), vehicle: Klucel (hydroxypropylcellulose) (HPC) 99 % of control and 108 % of control | dose: 6.48 mg/kg/injection, schedule: Q01DX009 (ip), vehicle: Klucel (hydroxypropylcellulose) (HPC) 102 % of control and 104 % of control | dose: 10.8 mg/kg/injection, schedule: Q01DX009 (ip), vehicle: Klucel (hydroxypropylcellulose) (HPC) 104 % of control and 117 % of control | dose: 12.5 mg/kg/injection, schedule: Q01DX009 (ip), vehicle: water 108 % of control and 115 % of control | dose: 18.0 mg/kg/injection, schedule: Q01DX009 (ip), vehicle: Klucel (hydroxypropylcellulose) (HPC) 106 % of control and 94 % of control | dose: 20.0 mg/kg/injection, schedule: Q01DX009 (ip), vehicle: water 92 % of control | dose: 23.3 mg/kg/injection, schedule: Q04DX003 (ip), vehicle: Klucel (hydroxypropylcellulose) (HPC) 102 % of control and 104 % of control | dose: 25.0 mg/kg/injection, schedule: Q01DX009 (ip), vehicle: water 117 % of control | dose: 30.0 mg/kg/injection, schedule: Q01DX009 (ip), vehicle: Klucel (hydroxypropylcellulose) (HPC) 113 % of control and 117 % of control | dose: 30.0 mg/kg/injection, schedule: Q01DX009 (ip), vehicle: water 95 % of control | dose: 38.9 mg/kg/injection, schedule: Q04DX003 (ip), vehicle: Klucel (hydroxypropylcellulose) (HPC) 111 % of control and 97 % of control | dose: 40.0 mg/kg/injection, schedule: Q01DX009 (ip), vehicle: water 100 % of control | dose: 50.0 mg/kg/injection, schedule: Q01DX009 (ip), vehicle: water 99 % of control | dose: 64.8 mg/kg/injection, schedule: Q04DX003 (ip), vehicle: Klucel (hydroxypropylcellulose) (HPC) 104 % of control and 95 % of control | dose: 80.0 mg/kg/injection, schedule: Q01DX009 (ip), vehicle: water 109 % of control | dose: 100.0 mg/kg/injection, schedule: Q01DX001 (ip), vehicle: saline 110 % of control | dose: 108.0 mg/kg/injection, schedule: Q04DX003 (ip), vehicle: Klucel (hydroxypropylcellulose) (HPC) 109 % of control | dose: 120.0 mg/kg/injection, schedule: Q01DX009 (ip), vehicle: water 92 % of control | dose: 125.0 mg/kg/injection, schedule: Q01DX001 (ip), vehicle: saline 113 % of control | dose: 150.0 mg/kg/injection, schedule: Q01DX001 (ip), vehicle: saline 112 % of control | dose: 175.0 mg/kg/injection, schedule: Q01DX001 (ip), vehicle: saline 112 % of control | dose: 180.0 mg/kg/injection, schedule: Q04DX003 (ip), vehicle: Klucel (hydroxypropylcellulose) (HPC) 97 % of control | dose: 200.0 mg/kg/injection, schedule: Q01DX001 (ip), vehicle: saline 112 % of control

CN(C)CCC=C1c2ccccc2C(C)(C)c2ccccc21
inactive: [1] 98 % of control | [2] 97 % of control

CC1SC2(C(=O)Nc3ccc([N+](=O)[O-])cc32)N(c2ccc(Cl)cc2)C1=O (stereo unspecified)
inactive: [3] 91 % of control | dose: 120.0 mg/kg/injection, schedule: Q01DX005 (ip), vehicle: saline with Tween-80 91 % of control | dose: 240.0 mg/kg/injection, schedule: Q01DX005 (ip), vehicle: saline with Tween-80 91 % of control

O=C(Nc1cccc2c1C(=O)c1cccc(NC(=O)c3ccc(C(=O)Nc4cccc5c4C(=O)c4cccc(NC(=O)c6ccccc6)c4C5=O)cc3)c1C2=O)c1ccccc1
inactive: [4] 100 % of control | [5] 94 % of control | [6] 93 % of control

CCCCCCCCCCCCS(=O)CC(C)O (stereo unspecified)
inactive: dose: 25.0 mg/kg/injection, schedule: Q01DX009 (ip), vehicle: saline + Tween-80 + alcohol 99 % of control and 101 % of control | dose: 50.0 mg/kg/injection, schedule: Q01DX009 (ip), vehicle: saline + Tween-80 + alcohol 95 % of control and 97 % of control | dose: 100.0 mg/kg/injection, schedule: Q01DX009 (ip), vehicle: saline + Tween-80 + alcohol 92 % of control and 95 % of control | dose: 200.0 mg/kg/injection, schedule: Q01DX009 (ip), vehicle: saline + Tween-80 + alcohol 99 % of control and 105 % of control | dose: 400.0 mg/kg/injection, schedule: Q01DX009 (ip), vehicle: saline + Tween-80 + alcohol 99 % of control and 107 % of control

O=C1CS(=O)(=O)C(c2ccc(Cl)cc2)N1N1C(=O)CS(=O)(=O)C1c1ccc(Cl)cc1 (stereo unspecified)
inactive: dose: 25.0 mg/kg/injection, schedule: Q01DX005 (ip), vehicle: saline with Tween-80 98 % of control and 109 % of control | [7] 95 % of control and 96 % of control | [8] 87 % of control and 95 % of control

Cc1cccc(-n2nc(C(=O)O)c(=O)[nH]c2=O)c1
inactive: dose: 100.0 mg/kg/injection, schedule: Q01DX001 (ip), vehicle: saline with Tween-80 104 % of control | dose: 200.0 mg/kg/injection, schedule: Q01DX001 (ip), vehicle: saline with Tween-80 99 % of control | dose: 400.0 mg/kg/injection, schedule: Q01DX001 (ip), vehicle: saline with Tween-80 95 % of control

Cn1c(C(=O)O)cc(=O)cc1C(=O)O
inactive: dose: 6.25 mg/kg/injection, schedule: Q01DX009 (ip), vehicle: saline with Tween-80 100 % of control | dose: 12.5 mg/kg/injection, schedule: Q01DX009 (ip), vehicle: saline with Tween-80 101 % of control | dose: 25.0 mg/kg/injection, schedule: Q01DX009 (ip), vehicle: saline with Tween-80 95 % of control | [4] 100 % of control

CCN1CCC(Nc2ccnc3cc(Cl)ccc23)CC1
inactive: [1] 99 % of control | [7] 104 % of control | [2] 94 % of control | [8] 110 % of control

Cc1ccc2c(c1)-c1nc(N)ncc1C(O)O2 (stereo unspecified)
inactive: dose: 100.0 mg/kg/injection, schedule: Q04DX003 (ip), vehicle: saline 110 % of control | dose: 200.0 mg/kg/injection, schedule: Q04DX003 (ip), vehicle: saline 96 % of control | dose: 400.0 mg/kg/injection, schedule: Q04DX003 (ip), vehicle: saline 100 % of control

O=C(NO)/C(CC(=O)c1cccc(O)c1)=N\O
inactive: dose: 60.0 mg/kg/injection, schedule: Q01DX005 (ip), vehicle: saline 99 % of control | dose: 120.0 mg/kg/injection, schedule: Q01DX005 (ip), vehicle: saline 100 % of control | dose: 240.0 mg/kg/injection, schedule: Q01DX005 (ip), vehicle: saline 105 % of control

CCOC(=O)/N=[N+](\[O-])c1cccc(Br)c1
inactive: dose: 100.0 mg/kg/injection, schedule: Q01DX001 (ip), vehicle: Klucel (hydroxypropylcellulose) (HPC) 101 % of control

COCCOCCOCCOCCOCCOCCOCCOCCOCCOCCOCCOCCOCCOCCn1cc(F)c(=O)[nH]c1=O
inactive: dose: 100.0 mg/kg/injection, schedule: Q04DX002 (ip), vehicle: saline 100 % of control | dose: 200.0 mg/kg/injection, schedule: Q04DX002 (ip), vehicle: saline 101 % of control | dose: 400.0 mg/kg/injection, schedule: Q04DX002 (ip), vehicle: saline 104 % of control | dose: 800.0 mg/kg/injection, schedule: Q04DX002 (ip), vehicle: saline 100 % of control

CC(=O)c1ccc(Nc2cc(C)nc(N)n2)cc1
inactive: dose: 15.0 mg/kg/injection, schedule: Q01DX005 (ip), vehicle: saline with Tween-80 103 % of control | dose: 30.0 mg/kg/injection, schedule: Q01DX005 (ip), vehicle: saline with Tween-80 104 % of control | [3] 100 % of control and 105 % of control | dose: 100.0 mg/kg/injection, schedule: Q04DX002 (ip), vehicle: saline with Tween-80 112 % of control | dose: 200.0 mg/kg/injection, schedule: Q04DX002 (ip), vehicle: saline with Tween-80 96 % of control | dose: 400.0 mg/kg/injection, schedule: Q04DX002 (ip), vehicle: saline with Tween-80 99 % of control

O=S(=O)(O)C(Nc1cccc(Cl)c1)c1ccccc1 (stereo unspecified)
inactive: [4] 97 % of control | [5] 95 % of control | [6] 103 % of control

C=CCn1c(=O)c2[nH]c(Cl)nc2n(CC=C)c1=O
inactive: dose: 25.0 mg/kg/injection, schedule: Q01DX009 (ip), vehicle: Klucel (hydroxypropylcellulose) (HPC) 105 % of control | dose: 50.0 mg/kg/injection, schedule: Q01DX009 (ip), vehicle: Klucel (hydroxypropylcellulose) (HPC) 100 % of control | dose: 100.0 mg/kg/injection, schedule: Q01DX009 (ip), vehicle: Klucel (hydroxypropylcellulose) (HPC) 108 % of control

CN(CN(C)N=Nc1ccc(Cl)cc1)CN(C)N=Nc1ccc(Cl)cc1
inactive: dose: 60.0 mg/kg/injection, schedule: Q01DX005 (ip), vehicle: Klucel (hydroxypropylcellulose) (HPC) 104 % of control | dose: 120.0 mg/kg/injection, schedule: Q01DX005 (ip), vehicle: Klucel (hydroxypropylcellulose) (HPC) 110 % of control | dose: 240.0 mg/kg/injection, schedule: Q01DX005 (ip), vehicle: Klucel (hydroxypropylcellulose) (HPC) 110 % of control
